According to patent US20030236223A1, “Metastasis modulating activity of highly sulfated oligosaccharides” (Greenville Hospital System, priority 2002, published 2003):

Legend:
[1] = test system: murine B16 melanoma cells; test: B16 murine melanoma cell proliferation (Promega Cell Titer 96 AQueous assay); format: cell-based; details: 48 hours incubation, 0-90 micrograms/ml, FIG. 1
Method: 5000 cells/well of murine B16 melanoma cells were plated in a 96-well plate and incubated for 48 hours with varying concentrations of cyclodextrin tetradecasulfate (0-90 micrograms/ml). Non-radioactive assay solution was prepared according to manufacturer's protocol (Promega Cell Titer 96 AQueous Assay Reagents). Cells were read using a Biorad benchmark microplate reader 2 hours after the assay solution was added to the well.

lung metastasis = test: Lung metastasis in tumorigenic mice treated via drinking water; format: in vivo; details: C57B1-6 mice, 10 mg/ml in drinking water for two weeks, FIG. 2
Method: C57B1-6 mice (n=2) were treated with 10 mg/ml β-cyclodextrin tetradecasulfate in their drinking water for two weeks. The control animal (n=2) was given cyclodextrin-free drinking water.

Which cell proliferation [1] does the source give for β-cyclodextrin tetradecasulfate here?
Its cell proliferation is “cell proliferation decreases”.

What about the “lung metastasis compared to the control animal” value (lung metastasis) of the same substance?
The value was “⅓ fewer lung metastasis”.
